Laboratory results published in paper PMC5740381 (Antimicrobial Agents and Chemotherapy, 2017).
pEC50: −log10 of the molar value. Read-outs that look alike come from different tables or passages of the source.

Key:
[1] = system: HCV replicons with genotype 2b patient proteases; assay: Transient replicon assay with proteases from HCV-infected patients; type: cell-based; conditions: Hepatitis C virus, read-out: EC50 Range
Excerpt: (§1) Each of the NS3 gene sequences from genotypes 1, 2, and 4, with the exception of two genotype 2b sequences, was derived from serum or plasma from an HCV-infected patient by bulk PCR amplification, producing a population of sequences representing the viral quasispecies. Two genotype 2b sequences were synthesized based on the consensus sequences of the respective samples. One genotype 3a sequence was synthesized based on a consensus sequence from the sequences available in the Los Alamos HCV sequence database, and another genotype 3a sequence was a clonal sequence derived from a patient sample. The genotype 5a sequence (strain SA13) was synthesized based on the published sequence of the HCV isolate ([48]).
For the analysis of NS3 sequences from patients, we defined a polymorphism to be an amino acid difference in the sequence of a baseline sample relative to the sequence of the appropriate HCV subtype reference sequence: genotype 1a H77 (GenBank accession number NC_004102), genotype 1b Con1 (GenBank accession number AJ238799), genotype 2a JFH-1 (GenBank accession number AB047639), genotype 2b HC-J8 (GenBank accession number D10988), genotype 3a S52 (GenBank accession number GU814263), genotype 4a ED43 (GenBank accession number GU814265), genotype 4d QC382 (GenBank accession number FJ462437), and genotype 5a SA13 (GenBank accession number AF064490). […]

[2] = system: HCV replicons containing proteases from 40 samples, genotypes 1 to 5; assay: Transient replicon assay with patient proteases, all 40 samples; type: cell-based; conditions: Hepatitis C virus, 40 clinical samples
Excerpt: as §1, with “[…]. Each” for “Each”
Transient replicons containing NS3 from clinical samples from HCV genotype 1a- and 1b-infected patients were described previously ([28]). For the transient replicons containing NS3/4A from samples from genotype 3a-infected patients, the first 251 amino acids of NS3 and the region encoding NS4A amino acids 21 to 32 (numbered relative to the NS4A coding region) from these HCV samples were cloned to replace the corresponding residues from the backbone of a genotype 1b Con1 shuttle vector. […]

[3] = system: HCV subgenomic stable replicons containing proteases from genotypes 1 to 6; assay: Stable HCV replicon assay, several genotypes; type: cell-based; conditions: Hepatitis C virus, Huh-7, read-out: EC50, range over stable replicons
Excerpt: Five of these nine cell lines have been described previously, including those transfected with genotypes 1a H77, 1b Con1, 3a, 4a, and 6a ([28]). […] The genotype 2b and 6e NS3 sequences were each synthetically constructed based on a consensus sequence derived from the alignment of 15 genotype 2b and 4 genotype 6e sequences, respectively. All replicon constructs were bicistronic subgenomic replicons similar to those described by Bartenschlager and coworkers, and the replicon cell lines were generated by introducing these constructs into cells of an Huh-7 human hepatoma-derived cell line ([50]). The inhibitory effect of the PIs on HCV replication in replicon cells was determined in Dulbecco's modified Eagle medium containing 5% fetal bovine serum with or without 40% human plasma (Bioreclamation, Westbury, NY). The EC50s were determined using nonlinear regression curve fitting as described previously ([33]).

[4] = system: HCV genotype 1b replicon cells; assay: Drug-resistant colony selection in replicon cells; type: cell-based, Hepatitis C virus
Excerpt: (§2) . After approximately 3 weeks of treatment, the surviving replicon colonies in one plate for each selection condition were stained with crystal violet and counted, whereas approximately 20 to 30 colonies in a replicate plate or most of the colonies, if less than 20 colonies survived the selection, were picked and further expanded for genotyping. The expanded colonies were lysed in CellsDirect lysis buffer (Invitrogen, MA), and the NS3-coding region from each colony was amplified by reverse transcription-PCR and sequenced. For genotype 1a, 1b, 2a, and 5a colonies, the full-length NS3 sequence was determined, whereas for colonies of the chimeric replicon containing the N-terminal region of NS3 from genotype 2b, 3a, 4a, or 6a, the sequence encoding the NS3 N-terminal region was determined. We defined a substitution in a replicon to be an amino acid difference in a sequence from a posttreatment sample relative to the sequence of the corresponding untreated sample. For resistance selection studies, NS3 substitutions detected at the following amino acid positions associated with resistance to the HCV PI class in >2 colonies in each replicon selection are reported: 36, 43, 54, 55, 56, 80, 122, 155, 156, and 168. In addition, substitutions detected at other amino acid positions in the NS3 protease domain in >2 colonies in each replicon selection are also reported.
(§3) […]. The drug-resistant colonies were fixed and stained with crystal violet, and the number of colonies was determined.

[5] = system: HCV genotype 1a replicon cells; assay: Drug-resistant colony selection in replicon cells; type: cell-based, Hepatitis C virus
Excerpt: as §2, §3

SMILES: CC(C)(C)[C@@H]1NC(=O)O[C@@H]2CCC[C@H]2OC/C=C/C(F)(F)c2nc3ccccc3nc2O[C@@H]2C[C@@H](C(=O)N[C@]3(C(=O)NS(=O)(=O)C4(C)CC4)C[C@H]3C(F)F)N(C2)C1=O [Glecaprevir, (3aR,7S,10S,12R,21E,24aR)-7-tert-butyl-N-[(1R,2R)-2-(difluoromethyl)-1-{[(1-methylcyclopropyl)sulfonyl]carbamoyl}cyclopropyl]-20,20-difluoro-5,8-dioxo-2,3,3a,5,6,7,8,11,12,20,23,24a-dodecahydro-1H,10H-9,12-methanocyclopenta[18,19][1,10,17,3,6]trioxadiazacyclononadecino[11,12-b]quinoxaline-10-carboxamide]
- pEC50 [1]: 8.49 to 8.85
- pEC50 ([2]; read-out: EC50 range, overall): 8.42 to 10.30
- pEC50 ([2]; read-out: Overall median EC50): 9.52
- pEC50 [3]: 8.34 to 9.68
- Colony survival ([4]; 10× EC50, about 3 weeks): 0.047%
- Colony survival ([4]; 100× EC50): 0.03%
- Colony survival ([5]; 10× EC50, about 3 weeks): 0.043%
- Colony survival ([5]; 100× EC50): 0.0029%
